The conditions of data set [1]: for mass density: 293.15 K, 101.33 kPa, gas displacement; for Normal melting temperature / Triple point temperature: DTA.
Data set [2] in a line: refractive index (Na D-line) (dimensionless); wn = mass fraction of the nth substance listed. To be noted: 293.15 K, 101 kPa, Liquid, Standard Abbe refractometry.
Data set [3] can be described thus: refractive index (Na D-line) (dimensionless). To be noted: 293.15 K; 101.33 kPa; Liquid; Standard Abbe refractometry.

± gives the expanded uncertainty stated by the source.

Turning to `CCCC[N+](CC)(CC)CC.F[P-](F)(F)(F)(F)F` [N,N,N-triethyl-N-butylammonium hexafluorophosphate], the mass density in data set [1] (Crystal) is 1366 ± 16 kg/m3. For the same compound, in data set [1] (Crystal 1), the Normal melting temperature amounted to 178.90 ± 0.5 °C.

As to `CCCC[N+](CC)(CC)CC.F[P-](F)(F)(F)(F)F` [N,N,N-triethyl-N-butylammonium hexafluorophosphate] + O=S(=O)(O)C(F)(F)F, the refractive index was 1.3405 ± 0.0052 in data set [2] (w1 = 0.1); 1.3522 ± 0.0052 in data set [2] (w1 = 0.2); 1.3632 ± 0.0051 in data set [2] (w1 = 0.3); 1.3745 ± 0.0051 in data set [2] (w1 = 0.4); 1.3786 ± 0.005 in data set [2] (w1 = 0.5); 1.3782 ± 0.005 in data set [2] (w1 = 0.6).

Turning to `CCCC[N+](CC)(CC)CC.F[B-](F)(F)F` [N,N,N-triethyl-N-butylammonium tetrafluoroborate], in data set [1] (Crystal 2), the mass density worked out at 1140 ± 16 kg/m3 and the Triple point temperature is reported as 305.85 ± 0.5 K. Also, the Normal melting temperature in data set [1] (Crystal 1) is 161.90 ± 0.5 °C.

Take `CCCC[N+](CC)(CC)CC.F[B-](F)(F)F` [N,N,N-triethyl-N-butylammonium tetrafluoroborate] + O=S(=O)(O)C(F)(F)F: the refractive index in data set [2] (w1 = 0.1) is recorded as 1.3451 ± 0.0052; in data set [2] (w1 = 0.2), 1.3543 ± 0.0051; in data set [2] (w1 = 0.3), 1.3636 ± 0.0051; in data set [2] (w1 = 0.4) it was 1.3698 ± 0.0051; in data set [2] (w1 = 0.5) it was 1.3771 ± 0.0051; in data set [2] (w1 = 0.6), 1.3857 ± 0.0051.

With `CCCCCC[N+](CC)(CC)CC.[F][Sb-]([F])([F])([F])([F])[F]` [N,N,N-triethyl-N-hexylammonium hexafluoroantimonate], in data set [1] (Crystal), the mass density came out at 1488 ± 16 kg/m3 and the Normal melting temperature worked out at 174.00 ± 0.5 °C.

Regarding `CCCCCC[N+](CC)(CC)CC.[F][Sb-]([F])([F])([F])([F])[F]` [N,N,N-triethyl-N-hexylammonium hexafluoroantimonate] + O=S(=O)(O)C(F)(F)F, the refractive index in data set [2] (w1 = 0.1) worked out at 1.3381 ± 0.0051; in data set [2] (w1 = 0.2), 1.3462 ± 0.0051; in data set [2] (w1 = 0.3), 1.3563 ± 0.0051; in data set [2] (w1 = 0.4), 1.3628 ± 0.0051; in data set [2] (w1 = 0.5) it was 1.3722 ± 0.0051; in data set [2] (w1 = 0.6), 1.3809 ± 0.0051.

On to `CCCCCC[N+](CC)(CC)CC.F[P-](F)(F)(F)(F)F` [N,N,N-triethyl-N-hexylammonium hexafluorophosphate], for which, in data set [1] (Crystal), the mass density is on record as 1351 ± 16 kg/m3 and the Normal melting temperature stood at 161.60 ± 0.5 °C.

`CCCCCC[N+](CC)(CC)CC.F[P-](F)(F)(F)(F)F` [N,N,N-triethyl-N-hexylammonium hexafluorophosphate] + O=S(=O)(O)C(F)(F)F: the refractive index in data set [2] (w1 = 0.1) turned out to be 1.3421 ± 0.0052; in data set [2] (w1 = 0.2) it was 1.3549 ± 0.0052; in data set [2] (w1 = 0.3), 1.3667 ± 0.0051; in data set [2] (w1 = 0.4), 1.3762 ± 0.0051.

Turning to `CCCCCC[N+](CC)(CC)CC.F[B-](F)(F)F` [N,N,N-triethyl-N-hexylammonium tetrafluoroborate], in data set [1] (Crystal), the mass density stood at 1094 ± 16 kg/m3 and the Normal melting temperature came to 88.20 ± 0.5 °C.

For the compound `CCCCCC[N+](CC)(CC)CC.F[B-](F)(F)F` [N,N,N-triethyl-N-hexylammonium tetrafluoroborate] + O=S(=O)(O)C(F)(F)F, the refractive index in data set [2] (w1 = 0.1) is 1.3475 ± 0.0052; in data set [2] (w1 = 0.2), 1.3572 ± 0.0051; in data set [2] (w1 = 0.3) it was 1.3654 ± 0.0051; in data set [2] (w1 = 0.4), 1.3728 ± 0.0051; in data set [2] (w1 = 0.5), 1.3782 ± 0.0051.

As to `CCCCCCCC[N+](CC)(CC)CC.F[P-](F)(F)(F)(F)F` [N,N,N-triethyl-N-octylammonium hexafluorophosphate], in data set [1] (Crystal 2), the mass density is recorded as 1190 ± 16 kg/m3 and the Triple point temperature was 311.65 ± 0.5 K. Further, in data set [1] (Crystal 1), the Normal melting temperature is 88.30 ± 0.5 °C.

For the compound `CCCCCCCC[N+](CC)(CC)CC.F[P-](F)(F)(F)(F)F` [N,N,N-triethyl-N-octylammonium hexafluorophosphate] + O=S(=O)(O)C(F)(F)F, the refractive index turned out to be 1.3427 ± 0.0052 in data set [2] (w1 = 0.1); 1.3562 ± 0.0052 in data set [2] (w1 = 0.2); 1.3681 ± 0.0051 in data set [2] (w1 = 0.3); 1.3781 ± 0.0051 in data set [2] (w1 = 0.4); 1.3875 ± 0.0051 in data set [2] (w1 = 0.5).

Regarding `CCCCCCCC[N+](CC)(CC)CC.F[B-](F)(F)F` [N,N,N-triethyl-N-octylammonium tetrafluoroborate], in data set [1] (Crystal), the mass density is on record as 1065 ± 16 kg/m3 and the Normal melting temperature amounted to 101.40 ± 0.5 °C.

Regarding `CCCCCCCC[N+](CC)(CC)CC.F[B-](F)(F)F` [N,N,N-triethyl-N-octylammonium tetrafluoroborate] + O=S(=O)(O)C(F)(F)F, the refractive index was 1.3493 ± 0.0052 in data set [2] (w1 = 0.1); 1.3583 ± 0.0051 in data set [2] (w1 = 0.2); 1.3672 ± 0.0051 in data set [2] (w1 = 0.3); 1.3745 ± 0.0051 in data set [2] (w1 = 0.4); 1.3811 ± 0.0051 in data set [2] (w1 = 0.5).

In the case of `O=S(=O)(O)C(F)(F)F` [methanesulfonic acid, trifluoro-], the refractive index in data set [3] was determined as 1.3292 ± 0.005.

Turning to `O=S(=O)(O)C(F)(F)F` [methanesulfonic acid, trifluoro-] + CCCCCCCC[N+](CC)(CC)CC.F[B-](F)(F)F, the refractive index in data set [2] (w2 = 0) worked out at 1.3292 ± 0.005.

Consider `O=S(=O)(O)C(F)(F)F` [methanesulfonic acid, trifluoro-] + CCCCCCCC[N+](CC)(CC)CC.F[P-](F)(F)(F)(F)F, for which, in data set [2] (w2 = 0), the refractive index came out at 1.3292 ± 0.005.

For `O=S(=O)(O)C(F)(F)F` [methanesulfonic acid, trifluoro-] + CCCCCC[N+](CC)(CC)CC.F[B-](F)(F)F, the refractive index in data set [2] (w2 = 0) came out at 1.3292 ± 0.005.

Consider `O=S(=O)(O)C(F)(F)F` [methanesulfonic acid, trifluoro-] + CCCCCC[N+](CC)(CC)CC.F[P-](F)(F)(F)(F)F, for which the refractive index in data set [2] (w2 = 0) is on record as 1.3292 ± 0.005.

For the compound `O=S(=O)(O)C(F)(F)F` [methanesulfonic acid, trifluoro-] + CCCCCC[N+](CC)(CC)CC.[F][Sb-]([F])([F])([F])([F])[F], in data set [2] (w2 = 0), the refractive index is on record as 1.3292 ± 0.005.

Turning to `O=S(=O)(O)C(F)(F)F` [methanesulfonic acid, trifluoro-] + CCCC[N+](CC)(CC)CC.F[B-](F)(F)F, the refractive index in data set [2] (w2 = 0) was 1.3292 ± 0.005.

On to `O=S(=O)(O)C(F)(F)F` [methanesulfonic acid, trifluoro-] + CCCC[N+](CC)(CC)CC.F[P-](F)(F)(F)(F)F, for which the refractive index in data set [2] (w2 = 0) is listed as 1.3292 ± 0.005.

As to `O=S(=O)(O)C(F)(F)F` [methanesulfonic acid, trifluoro-] + CC[N+](CC)(CC)CC.F[B-](F)(F)F, the refractive index in data set [2] (w2 = 0) is recorded as 1.3292 ± 0.005.

On to `O=S(=O)(O)C(F)(F)F` [methanesulfonic acid, trifluoro-] + CC[N+](CC)(CC)CC.F[P-](F)(F)(F)(F)F, for which, in data set [2] (w2 = 0), the refractive index worked out at 1.3292 ± 0.005.

For the compound `O=S(=O)(O)C(F)(F)F` [methanesulfonic acid, trifluoro-] + CC[N+](CC)(CC)CC.[F][Sb-]([F])([F])([F])([F])[F], the refractive index in data set [2] (w2 = 0) worked out at 1.3292 ± 0.005.

Take `CC[N+](CC)(CC)CC.[F][Sb-]([F])([F])([F])([F])[F]` [tetraethylammonium hexafluoroantimonate]: the mass density in data set [1] (Liquid) is listed as 1715 ± 16 kg/m3.

Turning to `CC[N+](CC)(CC)CC.[F][Sb-]([F])([F])([F])([F])[F]` [tetraethylammonium hexafluoroantimonate] + O=S(=O)(O)C(F)(F)F, the refractive index in data set [2] (w1 = 0.1) was 1.3349 ± 0.0051; in data set [2] (w1 = 0.2), 1.3408 ± 0.0051; in data set [2] (w1 = 0.3) it was 1.3498 ± 0.0051; in data set [2] (w1 = 0.4), 1.3571 ± 0.0051; in data set [2] (w1 = 0.5), 1.3641 ± 0.0051; in data set [2] (w1 = 0.6) it was 1.3678 ± 0.005.

For the compound `CC[N+](CC)(CC)CC.F[P-](F)(F)(F)(F)F` [tetraethylammonium hexafluorophosphate], in data set [1] (Crystal), the mass density is reported as 1440 ± 16 kg/m3 and the Normal melting temperature was 77.10 ± 0.5 °C.

In the case of `CC[N+](CC)(CC)CC.F[P-](F)(F)(F)(F)F` [tetraethylammonium hexafluorophosphate] + O=S(=O)(O)C(F)(F)F, the refractive index in data set [2] (w1 = 0.1) was found to be 1.3398 ± 0.0051; in data set [2] (w1 = 0.2), 1.3499 ± 0.0051; in data set [2] (w1 = 0.3) it was 1.3602 ± 0.0051; in data set [2] (w1 = 0.4), 1.3691 ± 0.0051.

As to `CC[N+](CC)(CC)CC.F[B-](F)(F)F` [tetraethylammonium tetrafluoroborate], in data set [1] (Crystal), the mass density stood at 1220 ± 16 kg/m3 and the Normal melting temperature came to 71.40 ± 0.5 °C.

Turning to `CC[N+](CC)(CC)CC.F[B-](F)(F)F` [tetraethylammonium tetrafluoroborate] + O=S(=O)(O)C(F)(F)F, the refractive index in data set [2] (w1 = 0.1) came to 1.3421 ± 0.0051; in data set [2] (w1 = 0.2) it was 1.3512 ± 0.0051; in data set [2] (w1 = 0.3), 1.3601 ± 0.0051; in data set [2] (w1 = 0.4) it was 1.3656 ± 0.0051; in data set [2] (w1 = 0.5) it was 1.3732 ± 0.0051.

The values are drawn from the NIST ThermoML archive (doi:10.1021/je300993n).
